Values of other authors as cited in PMC3341666 (Biochemistry, 2009).

Legend:
[1] = target: Prostate-Specific Antigen (PSA) (Homo sapiens, UniProt P07288); settings: introduction statement, no reference given
Bovine α-Chymotrypsin = Bovine α-Chymotrypsin (Bos taurus, UniProt P00766); settings: previous study

Prostate-Specific Antigen (PSA), sequence (P07288 25-261): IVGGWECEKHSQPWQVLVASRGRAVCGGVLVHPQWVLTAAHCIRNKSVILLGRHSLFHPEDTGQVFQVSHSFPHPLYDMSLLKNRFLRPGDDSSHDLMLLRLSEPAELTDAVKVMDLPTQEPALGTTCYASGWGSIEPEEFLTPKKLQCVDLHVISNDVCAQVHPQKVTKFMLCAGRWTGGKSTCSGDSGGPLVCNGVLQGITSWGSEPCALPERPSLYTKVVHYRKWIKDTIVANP

| Compound | PSA inhibition (in words) [1] | fold higher Ki for chymotrypsin (vs PSA) (Bovine α-Chymotrypsin) |
| --- | --- | --- |
| Cc1ccc(S(=O)(=O)N[C@@H](Cc2ccccc2)C(=O)CCl)cc1 [TPCK, tosyl-phenylalanine chloromethylketone] | poor PSA inhibitors | – |
| Z-SSKL(boro)L | – | ~ 65 fold |
| O=S(=O)(F)Cc1ccccc1 [PMSF, phenylmethylsulphonyl fluoride] | poor PSA inhibitors | – |
